Results on one compound are retold here after US11958812B2, “3, 5-disubstituted pyridine and 3, 5-disubstituted pyridazine derivatives and pharmaceutical use of same” (MITSUBISHI TANABE PHARMA CORPORATION, priority 2018, dated 2024).

Molecules are shown by their SMILES.

The test system of experiment [1] is Macaca fascicularis laser-induced high intraocular pressure model. Briefly: Macaca fascicularis laser-induced high intraocular pressure model. It counts as in vivo. Particulars: left eye with high intraocular pressure. The method, then:
[Study of Action of ATX Inhibitor on Macaca fascicularis Intraocular Pressure]
The efficacy of ATX inhibitor (Example 5, hereinafter indicated as in example 5 in the Figures) for Macaca fascicularis laser-induced high intraocular pressure model was evaluated using the intraocular pressure lowering action as an index.
A green laser beam at wavelength 532 nm was uniformly irradiated to 360° around of the trabecular meshwork, which is the excretory passage of the aqueous humor, of the left eye alone, whereby high intraocular pressure was induced. The right eye was maintained normal. […]
The required amount of ATX inhibitor (Example 5) was weighed, transferred to an agate mortar and lightly ground. […] The oral vehicle was added to increase the amount and the pH was confirmed to be not exceeding 11.0 (measured value: pH10.55-10.88).
A 0.04 mol/L boric acid/phosphoric acid/acetic acid mixed solution (307 mL) was mixed with a 0.2 mol/L aqueous sodium hydroxide solution (193 mL) (pH about 8.4), pH was adjusted to 8.5 with 1 mol/L hydrochloric acid to prepare Britton-Robinson buffer (pH 8.5). […] 4.5 mg of ATX inhibitor (Example 5) was measured in a 10 mL measuring flask, the instillation administration vehicle (9.6 mL) was added and the mixture was sonicated for 30 min in an ultrasonication washing machine set to about 40° C. […]

The next experiment concerns the target T1, ATX activity in plasma (Rattus norvegicus, UniProt Q64610).
T1 construct: from tissue; host or cells: plasma of male Wistar rats after oral dosing
Nature of the experiment: Measurement of ATX activity in plasma (ex vivo), rat single administration test. Details: species or system male Wistar rat.

On to `COc1ccc(-c2cnnc(OC[C@H]3CC[C@H](C(F)(F)F)CC3)c2)nc1[C@H]1C[C@@H]1C(=O)O` [Example 5, (1S,2S)-2-[3-methoxy-6-(6-{[trans-4-(trifluoromethyl)cyclohexyl]methoxy}pyridazin-4-yl)pyridin-2-yl]cyclopropanecarboxylic Acid], for which the “intraocular pressure lowering action, single instillation administration” value in experiment [1] (instillation, 0.0135 mg/eye, FIG. 8) is given as “statistically significant intraocular pressure lowering action”. Further, in experiment [1] (oral, 100 mg/kg, FIG. 7), the “intraocular pressure lowering action, single oral administration” value is given as “statistically significant intraocular pressure lowering action”. Further, on ATX activity in plasma, the “Experimental Example 2 Rat single administration test (inhibitory activity (%) 8 hr after 1 mg/kg oral administration)” value is recorded as 92%.
